Consider 21 compounds from US5500430A, “Amidic derivatives of glutamic, aspartic and 2-amino adipic acids, a process for preparing same, and anti-gastrin composition containing the derivatives” (Rotta Research Laboratorium S.p.A., priority 1990, dated 1996).

The assay has as its system gastric acid secretion induced by pentagastrin. In words: Antisecretive activity in anaesthetised rats (pentagastrin-stimulated gastric acid secretion). The class given is in vivo. Conditions: pentagastrin 30 mcg/Kg/h; for ED50: Rattus norvegicus, iv, anaesthetised male rats, I.V. bolus, IN with bound, read-out: Antagonistic activity (ID50) towards gastric acid secretion induced by pentagastrin. Here is the method: Antisecretive activity in anaesthetised rats
Antisecretive activity in rats was determined with the use of male animals each weighing about 200 g, anaesthetised with urethane. Gastric secretion was stimulated with pentagastrin. The method of K. S. Lai (Gut 5, (1964), 327-341) was used, slightly modified.
After tracheotomy, cannulae were inserted in the oesophagus and the duodenum. A tepid solution. (37° C.) of 0.25 mM NaOH was perfused and passed through the stomach by means of a peristaltic pump at a constant flow rate of 1 ml/minute. After stabilisation for 20 minutes, the stimulating agent, dissolved in a physiological solution, was perfused for 120 minutes at a dose of 30 mcg/Kg/h in a volume of 0.95 ml/hour. After perfusion for 60 minutes (the basal stimulation), the product under test was administered as an intravenous bolus (I.V.) and the perfusion of the stimulant continued for a further 60 minutes. Acid secretion was recorded continuously as a function of time.
The activity of the product was evaluated as the percentage reduction in the secreted acidity after the administration of the product compared with the base acidity measured during the first 60 minutes of collection during which only the pentagastrin was present.
Different doses of the antagonist compounds tested were administered so that an ID50, that is, the dose (in mg/Kg I.V.) capable of inhibiting the effect of pentagastrin by 50%, could be calculated.
The results thus obtained are illustrated in the following table (Table 1) in which the activities of the compounds are expressed as the ID50s under the stimulus of 30 mcg/Kg/h of pentagastrin.

Regarding `O=C(O)CC[C@@H](NC(=O)c1cc(Cl)cc(Cl)c1)C(=O)N1CCC2(CCCC2)C1` [Compound C7], the ED50 worked out at 60 mg/kg. Same read-out and setting: then `COc1cccc(C(=O)N[C@H](CCC(=O)O)C(=O)N2CCC3(CCCC3)CC2)c1` [Compound C15], with 46 mg/kg; and `O=C(O)CC[C@@H](NC(=O)c1cccc(Cl)c1Cl)C(=O)N1CCC2(CCCC2)CC1` [Compound C9], with 40 mg/kg; and `O=C(O)CC[C@@H](NC(=O)c1cccc(Cl)c1)C(=O)N1CCC2(CCCCC2)C1` [Compound C4], with 49 mg/kg. Turning to `O=C(O)CCC(NC(=O)c1cccc(Cl)c1)C(=O)N1CCC2(CC1)OCCS2` (stereo not shown) [Compound D3], the ED50 was determined as 67 mg/kg.

For the compound `O=C(O)CC[C@@H](NC(=O)c1cc2ccccc2[nH]1)C(=O)N1CCC2(CCCC2)CC1` [Compound C26], the ED50 was above 75 mg/kg. Still for that read-out and setting: then `O=C(O)CC[C@@H](NC(=O)c1ccco1)C(=O)N1CCC2(CCCC2)CC1` [Compound C24], with above 75 mg/kg. Still for that read-out and setting: then `CCCN(CCC)C(=O)C(CCC(=O)O)NC(=O)c1ccccc1` (stereo not shown) [Proglumide, proglumide, reference compound], with 500 mg/kg; and `CC(C)c1ccc(C(=O)N[C@H](CCC(=O)O)C(=O)N2CCC3(CCCC3)CC2)cc1` [Compound C18], with 28 mg/kg. Still for that read-out and setting: the value for `O=C(O)CC[C@@H](NC(=O)c1cccc(Cl)c1)C(=O)N1CCC2(CC1)OCCO2` [Compound C27] was 81 mg/kg; that for `O=C(O)CCC(NC(=O)c1cc(Cl)cc(Cl)c1)C(=O)NC1CCC2CCCCC2C1` (stereo not shown) [Compound D7] was 48 mg/kg.

Regarding `O=C(O)CCC(NC(=O)c1cccc(Cl)c1)C(=O)NC1CCC2CCCCC2C1` (stereo not shown) [Compound D6], the ED50 came out at 60 mg/kg.

As to `O=C(O)CC[C@@H](NC(=O)c1cccc(Cl)c1)C(=O)NC1CCC2(CCCCC2)CC1` [Compound C22], the ED50 worked out at 55 mg/kg. Same read-out and setting: the value for `O=C(O)CC[C@@H](NC(=O)c1cccc(C(F)(F)F)c1)C(=O)N1CCC2(CCCC2)CC1` [Compound C17] was 55 mg/kg. Still for that read-out and setting: the value for `Cc1cc(C)cc(C(=O)N[C@H](CCC(=O)O)C(=O)N2CCC3(CCCC3)CC2)c1` [Compound C13] was 33 mg/kg. Regarding `O=C(O)CC[C@@H](NC(=O)c1cc(Cl)cc(Cl)c1)C(=O)NCCC12CC3CC(CC(C3)C1)C2` [Compound C31], the ED50 was 20 mg/kg. Also, the “Antigastrin activity (in words)” value (anaesthetised rats) is “particularly favourable”. As for `O=C(O)CC[C@@H](NC(=O)c1cc(Cl)cc(Cl)c1)C(=O)N1CCC2(CC1)OCCO2` [Compound C28], the ED50 is 70 mg/kg. On the same count and under the same terms, the value for `CCc1cccc(C(=O)N[C@H](CCC(=O)O)C(=O)N2CCC3(CCCC3)CC2)c1` [Compound C12] was 38 mg/kg; that for `O=C(O)CC[C@@H](NC(=O)c1cccnc1Cl)C(=O)N1CCC2(CCCC2)CC1` [Compound C25] was 69 mg/kg; that for `Cc1cccc(C(=O)N[C@H](CCC(=O)O)C(=O)N2CCC3(CCCC3)CC2)c1` [Compound C11] was 38 mg/kg. Same read-out and setting: then `N#Cc1cccc(C(=O)N[C@H](CCC(=O)O)C(=O)N2CCC3(CCCC3)CC2)c1` [Compound C16], with 66 mg/kg.
